The record followed here is ChEMBL document CHEMBL1201862, “PubChem BioAssay data set” (2004).

Common to all, as to assay: inhibition of tumour cell growth, NCI panel, 48 h
Assay [1] has as its system OVCAR-5.
The test system of assay [2] is SF-268.
Assay [3] deals with ACHN.
The subject of assay [4] is MOLT-4.
Assay [5] concerns SK-OV-3.
In assay [6] the test system is SW-620.
In assay [7] the test system is HCC 2998.
In assay [8] the test system is UO-31.
Assay [9] concerns COLO 205.
The subject of assay [10] is HOP-62.
Assay [11] deals with HOP-92.
The subject of assay [12] is HCT-116.
For assay [13], the system named is KM12.
Assay [14] concerns SN12C.
The test system of assay [15] is SF-539.
Assay [16] deals with M14.
In assay [17] the test system is TK-10.
Assay [18] relates to LOX IMVI.
Assay [19] concerns RXF 393.

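Dose response: 5 concentrations. Exposure: 48 h. Format: 96-well plates. Endpoint: linear interpolation; highest concentration if not reached. GI50 marks 50% less growth.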 The source made the active and inactive calls. Rule as the data show it: active = GI50 up to about 1.1 µM and inactive = higher. Where a SMILES comes first, the peptide text is derived from it. The star is where a group is joined. Boc = CC(C)(C)OC(=O)*

With `O=c1c2ccccc2nc(-c2ccc(Br)cc2)n1NC1OC(CO)C(O)C(O)C1O` (stereo not given), the GI50 was > 100 µM (inactive) in [1]; 69.5 µM (inactive) in assay [2]; > 100 µM (inactive) in [3]; 31.6 µM (inactive) in [4]; > 100 µM (inactive) in assay [5]; > 100 µM (inactive) in assay [6]. The GI50 in [7] is 82.4 µM (inactive); in [8], 78 µM (inactive); in assay [9], 59.8 µM (inactive); in assay [10], > 100 µM (inactive); in assay [11], > 100 µM (inactive); in assay [12] it was > 100 µM (inactive). The GI50 in assay [13], in [14], in [15], in assay [16] and in assay [17] was > 100 µM (inactive) in each case.

Take `COc1ccc(/N=C\c2cc(OC)c(OC)c(OC)c2)cc1`: the GI50 was > 100 µM (inactive) in assay [1]; > 100 µM (inactive) in [2]; 94 µM (inactive) in [3]; 17.5 µM (inactive) in [18]; > 100 µM (inactive) in assay [4]; > 100 µM (inactive) in assay [5]. For the same compound, the GI50 in assay [6] was 14.3 µM (inactive); in [8], 64.9 µM (inactive); in [10] it was > 100 µM (inactive); in assay [11], > 100 µM (inactive); in assay [12], > 100 µM (inactive); in assay [19], > 100 µM (inactive). For the same compound, the GI50 is > 100 µM (inactive) in assay [13], > 100 µM (inactive) in [14], 87.1 µM (inactive) in assay [15] and > 100 µM (inactive) in assay [17].

For the compound `CCOC(=O)CC[C@H](NC(=O)c1nc[nH]c1/N=N/N(C)C)C(=O)OCC`, the GI50 in assay [2], in [3], in assay [18], in [4], in assay [5] and in [6] was > 100 µM (inactive) in each case. Further, the GI50 in [7], in [8], in assay [9], in assay [10], in assay [12] and in assay [13] was > 100 µM (inactive) each time. Also, the GI50 in assay [14], in assay [15] and in [16] was > 100 µM (inactive) in each case.

Turning to `CC(=O)[C@@]1(c2ccccc2)CC2(CCN(C)CC2)O[C@H]1C`, the GI50 in assay [1], in assay [2], in [3], in [18], in [4] and in assay [5] was > 100 µM (inactive) throughout. The GI50 in assay [6], in [8], in [9], in assay [10], in assay [11] and in assay [12] was > 100 µM (inactive) each time. Further, the GI50 in assay [19], in assay [13], in assay [14], in assay [15], in assay [16] and in [17] was > 100 µM (inactive) each time.

As to `O=C1CCC2COc3ccc(O)c1c32` (stereo not given), the GI50 in [3], in [18], in assay [4], in assay [5], in assay [6] and in [9] was > 100 µM (inactive) each time. The GI50 in [11] is 79.3 µM (inactive); in assay [12] it was > 100 µM (inactive); in assay [19] it was > 100 µM (inactive); in assay [14], > 100 µM (inactive); in [15], > 100 µM (inactive); in assay [16], > 100 µM (inactive). Moreover, the GI50 in assay [17] was > 100 µM (inactive).

Consider `N#C/N=[N+](\[O-])c1ccc(C(=O)O)cc1`, for which the GI50 in [1] was 20 µM (inactive); in assay [2], 19.4 µM (inactive); in assay [3], 18.4 µM (inactive); in assay [5] it was 18.6 µM (inactive); in assay [6], 19.9 µM (inactive); in assay [7] it was 25.5 µM (inactive). Also, the GI50 in [8] is 16.6 µM (inactive); in [10], 16.6 µM (inactive); in [11], 20.4 µM (inactive); in [19], 16.1 µM (inactive); in [13], > 100 µM (inactive); in assay [15] it was 16.3 µM (inactive). The GI50 in [16] was 18.2 µM (inactive); in assay [17], 17.5 µM (inactive).

As for `Cc1cnc2nc(-c3ccc4ccccc4c3)cc(O)c2c1`, the GI50 was 0.855 µM (active) in [1]; 2.81 µM (inactive) in assay [2]; 0.658 µM (active) in assay [3]; 0.728 µM (active) in [18]; 0.431 µM (active) in [4]; 0.578 µM (active) in assay [5]. Also, the GI50 is 0.359 µM (active) in assay [6]; 1.4 µM (inactive) in [7]; 0.847 µM (active) in assay [8]; 0.342 µM (active) in assay [9]; 0.851 µM (active) in assay [10]; 0.444 µM (active) in assay [13]. For the same compound, the GI50 in [14] was 0.966 µM (active); in assay [15], 0.391 µM (active); in assay [16], 0.547 µM (active); in assay [17], 2.4 µM (inactive).

`Cc1nc2ccc(S(=O)(=O)Nc3nccs3)cc2c(=O)n1NS(=O)(=O)c1nccs1`: the GI50 in assay [1] was > 100 µM (inactive); in assay [2] it was > 100 µM (inactive); in assay [3], 32 µM (inactive); in assay [4], 28.5 µM (inactive); in assay [5] it was > 100 µM (inactive); in [6] it was 78.3 µM (inactive). For the same compound, the GI50 in assay [7] is > 100 µM (inactive); in assay [8] it was 13.7 µM (inactive); in assay [9] it was > 100 µM (inactive); in [10], > 100 µM (inactive); in assay [11], > 100 µM (inactive); in assay [19], > 100 µM (inactive). Moreover, the GI50 in assay [13] is 64.9 µM (inactive); in [14], > 100 µM (inactive); in [15], > 100 µM (inactive); in assay [16] it was > 100 µM (inactive); in assay [17], > 100 µM (inactive).

As to `C=C1CCC2[C@@H](CCC3[C@]2(C)CCC[C@]3(C)C(=O)OC)C1CCO` (stereo not given in full), the GI50 in [1] was 14.9 µM (inactive); in assay [2] it was 11.3 µM (inactive); in assay [3] it was 14.8 µM (inactive); in assay [4] it was 4 µM (inactive); in assay [5], 29.3 µM (inactive); in assay [6] it was 13.1 µM (inactive). For the same compound, the GI50 in [8] is 14.7 µM (inactive); in assay [9], 13 µM (inactive); in assay [10] it was 19.8 µM (inactive); in [11], 7.08 µM (inactive); in assay [12] it was 5.98 µM (inactive); in [13], 12.5 µM (inactive). The GI50 is 11.9 µM (inactive) in assay [14], 13.4 µM (inactive) in [15], 13.6 µM (inactive) in assay [16] and 18.6 µM (inactive) in assay [17].

As for `COC(=O)[C@H](Cc1ccc(O)cc1)NC(=O)[C@H](Cc1ccc(O)cc1)NC(=O)OC(C)(C)C` (Boc-Tyr-Tyr-OMe), the GI50 was > 100 µM (inactive) in assay [1]; > 100 µM (inactive) in [2]; > 100 µM (inactive) in assay [3]; > 100 µM (inactive) in assay [18]; > 100 µM (inactive) in assay [5]; 39.4 µM (inactive) in [7]. For the same compound, the GI50 in assay [8] was > 100 µM (inactive); in assay [9], 37.2 µM (inactive); in [10], > 100 µM (inactive); in assay [12] it was > 100 µM (inactive); in assay [19] it was 49.7 µM (inactive); in assay [13] it was > 100 µM (inactive). In addition, the GI50 in assay [15] is 82.2 µM (inactive); in assay [16] it was > 100 µM (inactive); in assay [17] it was > 100 µM (inactive).

Regarding `COc1ccc2c(c1)OCCC1=C2SCC2(C)CCN=C12` (stereo not given), the GI50 in assay [2] was > 100 µM (inactive); in [18], > 100 µM (inactive); in assay [4] it was 52 µM (inactive); in assay [5] it was > 100 µM (inactive); in assay [6] it was > 100 µM (inactive); in [7], > 10 µM (inactive). For the same compound, the GI50 in assay [9], in [10], in [12], in [19], in assay [13] and in [14] was > 100 µM (inactive) throughout. Also, the GI50 in assay [15], in [16] and in assay [17] was > 100 µM (inactive) each time.

In the case of `CCC1=C(C(C)=O)[C@@H]2CCCCC(C(=O)OC)[C@@H]2C1=O` (stereo not given in full), the GI50 in assay [1], in assay [2], in assay [3], in assay [4], in assay [5] and in assay [6] was > 100 µM (inactive) throughout. Besides, the GI50 in assay [7], in assay [8], in assay [9], in assay [10], in assay [11] and in assay [12] was > 100 µM (inactive) in each case. Besides, the GI50 in [19], in assay [13], in [14], in [15], in [16] and in assay [17] was > 100 µM (inactive) throughout.
